Measured values published in patent publication US8283348B2, “1-benzyl-3-hydroxymethylindazole derivatives and use thereof in the treatment of diseases based on the expression of MCP-1, CX3CR1 and p40” (Aziende Chimiche Riunite Angelini Francesco A.C.R.A.F. …, priority 2008, dated 2012).
Values belong to the compound of their own block, whether it stands above or below them.

Columns and labels:
human MCP-1 = experiment: Gene expression of MCP-1 in LPS-stimulated MonoMac6 cells (real-time RT-PCR); format: cell-based; settings: MONO-MAC-6, MCP-1 mRNA, 1 h preincubation, LPS 100 ng/ml 4 h; for inhibition at 75 µM: MonoMac6, compound 75 μM (maximum soluble concentration); for inhibition at 300 µM: MonoMac6, compound 300 μM (maximum soluble concentration); for inhibition at 150 µM: MonoMac6, compound 150 μM (maximum soluble concentration)
Protocol: (§1) The capacity of the compounds to inhibit the expression of MCP-1 by lipopolysaccharide (LPS)-stimulated MonoMac6 cells was evaluated. The cells were placed in 96-well plates at a concentration of 50 000 cells/well. The compounds were tested at the maximum soluble concentration given in Table 1 (in the range 30-300 μM) and incubated for 1 hour. The cells were then stimulated with LPS (100 ng/ml) for 4 hours.
(§2) The total RNA was extracted from the cell pellet using the RNeasy mini kit (Qiagen), reverse-transcribed with the TaqMan Reverse transcription reagents synthesis kit (Applied Biosystems) and the cDNA obtained was used for the real-time PCR reaction. The amplification was obtained in 96-well plates using the ABI Prism 7000 sequence detection system (Applied Biosystems), by applying the following temperature profile: 50° C. for 2 minutes, 95° C. for 10 minutes and 45 cycles at 95° C. for 15 seconds and 60° C. for 1 minute. For the amplification, a set of primers and probe specific for human MCP-1 was used (Applied Biosystems, RefSeq NM_002982.3). A set of primers and probe for β-actin was used in separate wells as an internal control of the samples for the purposes of normalization. Once the reaction had taken place, the fluorescence data were analysed using the ABI Prism 7000 SDS software, by calculating the threshold cycle (Ct) for each sample and subsequently performing a relative quantification via the ΔΔCt method.
The results obtained, expressed as a percentage of inhibition, are collated in Table 1 below.

MCP-1 = experiment: Production of MCP-1 protein by LPS-stimulated MonoMac6 cells (ELISA); format: cell-based; settings: Homo sapiens, MONO-MAC-6, MCP-1 protein in supernatant (ELISA), LPS 100 ng/ml 20 h; for inhibition at 30 µM: MonoMac6, compound 30 μM (maximum soluble concentration); for inhibition at 75 µM: MonoMac6, compound 75 μM (maximum soluble concentration); for inhibition at 300 µM: MonoMac6, compound 300 μM (maximum soluble concentration); for inhibition at 150 µM: MonoMac6, compound 150 μM (maximum soluble concentration)
Protocol: as §1, with “expression of the protein MCP-1 by” for “expression of MCP-1 by”, “in Table 2 (in the” for “in Table 1 (in the”, “ng/ml) for 20 hours.” for “ng/ml) for 4 hours.”
The amount of MCP-1 produced was measured in the supernatants, suitably diluted with buffer, by means of an immunoenzymatic test (ELISA) using a commercial kit (ELISA MCP-1/JE, R&D Systems).
The results obtained, expressed as a percentage of inhibition, are collated in Table 2 below.

human CX3CR1 = experiment: Gene expression of CX3CR1 in LPS-stimulated MonoMac6 cells (real-time RT-PCR); format: cell-based; settings: MONO-MAC-6, CX3CR1 mRNA, LPS 100 ng/ml 20 h; for inhibition at 75 µM: MonoMac6, compound 75 μM (maximum soluble concentration); for inhibition at 300 µM: MonoMac6, compound 300 μM (maximum soluble concentration); for inhibition at 150 µM: MonoMac6, compound 150 μM (maximum soluble concentration)
Protocol: as §2, with “The capacity of the compounds to inhibit the expression of CX3CR1 by lipopolysaccharide (LPS)-stimulated MonoMac6 cells was evaluated. The cells were placed in 96-well plates at a concentration of 50 000 cells/well. The compounds were tested at the maximum soluble concentration given in Table 3 (in the range 30-300 μM) and incubated for 1 hour. The cells were then stimulated with LPS (100 ng/ml) for 20 hours. The total” for “The total”, “for human CX3CR1 was used” for “for human MCP-1 was used”, “Biosystems, RefSeq NM_001337.3). A set” for “Biosystems, RefSeq NM_002982.3). A set”, “ΔΔCt method. The results obtained, expressed as a percentage of inhibition, are collated in Table 3 below.” for “ΔΔCt method.”

human p40 = experiment: Gene expression of p40 in LPS-stimulated MonoMac6 cells (real-time RT-PCR); format: cell-based; settings: MONO-MAC-6, p40 mRNA, LPS 100 ng/ml 4 h; for inhibition at 75 µM: MonoMac6, compound 75 μM (maximum soluble concentration); for inhibition at 150 µM: MonoMac6, compound 150 μM (maximum soluble concentration)
Protocol: as §1, with “of p40” for “of MCP-1”, “Table 4” for “Table 1”
as §2, with “p40” for “MCP-1”, “NM_002187.2).” for “NM_002982.3).”
The results obtained, expressed as a percentage of inhibition, are collated in Table 4 below.

[1] = MonoMac6, compound 30 μM (maximum soluble concentration)

Structure (SMILES): CC(C)(OCc1nn(Cc2ccccc2)c2ccccc12)C(=O)Nc1ccccn1 [Compound 14, 2-[(1-benzyl-1H-indazol-3-yl)methoxy]-2-methyl-N-pyrid-2-ylpropanamide]
inhibition at 30 µM (human MCP-1; [1]): 49%
inhibition at 30 µM (MCP-1): 70%
inhibition at 30 µM (human CX3CR1; [1]): 44%
inhibition at 30 µM (human p40; [1]): 27%
melting point: 121 to 122 °C

Structure (SMILES): CN1CCN(C(=O)C(C)(C)OCc2nn(Cc3ccccc3)c3ccccc23)CC1 [Compound 15, 1-benzyl-3-{[1,1-dimethyl-2-(4-methylpiperazin-1-yl)-2-oxoethoxy]methyl}-1H-indazole]
inhibition at 75 µM (human MCP-1): 40%
inhibition at 75 µM (MCP-1): 59%
inhibition at 75 µM (human CX3CR1): 89%
inhibition at 75 µM (human p40): 33%
melting point: 97 to 98 °C

Structure (SMILES): CC(C)(OCc1nn(Cc2ccccc2)c2ccccc12)C(=O)NNC(N)=O [Compound 12, 2-{2-[(1-benzyl-1H-indazol-3-yl)methoxy]-2-methylpropanoyl}hydrazinecarboxamide]
inhibition at 300 µM (human MCP-1): 20%
inhibition at 300 µM (MCP-1): 48%
inhibition at 300 µM (human CX3CR1): 83%

Structure (SMILES): CC(C)(OCc1nn(Cc2ccccc2)c2ccccc12)C(=O)NNc1ccccc1 [Compound 27, 2-[(1-benzyl-1H-indazol-3-yl)methoxy]-2-methyl-N′-phenylpropanohydrazide]
inhibition at 30 µM (MCP-1): 82%
melting point: 124 to 125 °C

Further lines, with some results ahead:

melting point: 111 to 112 °C
Structure (SMILES): CC(C)(OCc1nn(Cc2ccccc2)c2ccccc12)C(N)=O [Compound 9, 2-[(1-benzyl-1H-indazol-3-yl)methoxy]-2-methylpropanamide]
inhibition at 300 µM (human MCP-1): 99%
inhibition at 300 µM (MCP-1): 98%
inhibition at 300 µM (human CX3CR1): 99%
inhibition at 300 µM (human p40; MonoMac6, compound 300 μM (maximum soluble concentration)): 96%

melting point: 92 to 93 °C
Structure (SMILES): CC(C)(OCc1nn(Cc2ccccc2)c2ccccc12)C(=O)NN [Compound 11, 2-[(1-benzyl-1H-indazol-3-yl)methoxy]-2-methylpropanohydrazide]
inhibition at 150 µM (human MCP-1): 68%
inhibition at 150 µM (MCP-1): 79%
inhibition at 150 µM (human CX3CR1): 90%
inhibition at 150 µM (human p40): 44%

melting point: 115 to 116 °C
Structure (SMILES): CC(C)(OCc1nn(Cc2ccccc2)c2ccccc12)C(=O)NO [Compound 10, 2-[(1-benzyl-1H-indazol-3-yl)methoxy]-N-hydroxy-2-methylpropanamide]
inhibition at 150 µM (human MCP-1): 61%
inhibition at 150 µM (MCP-1): 91%
inhibition at 150 µM (human CX3CR1): 95%
inhibition at 150 µM (human p40): 54%

melting point: 136 to 137 °C
Structure (SMILES): CN(C)CCNC(=O)C(C)(C)OCc1nn(Cc2ccccc2)c2ccccc12.Cl [Compound 13, 2-[(1-benzyl-1H-indazol-3-yl)methoxy]-N-[2-(dimethylamino)ethyl]-2-methylpropanamide hydrochloride]
inhibition at 75 µM (human MCP-1): 72%
inhibition at 75 µM (MCP-1): 74%
inhibition at 75 µM (human CX3CR1): 100%
inhibition at 75 µM (human p40): 59%
